Source: patent US9561239B2, “Compositions and methods for inhibiting norovirus infection” (Children's Hospital Medical Center, priority 2013, dated 2017)
Like-named read-outs stand apart in the source and are kept apart here.

Assays:
[1] = molecular target: P dimers of VA387 (GII.4) binding to saliva HBGAs (Norovirus GII.4 (Human calicivirus NLV/VA98387/1998), UniProt Q913Z3); assay: Saliva-based NoV/HBGA blocking assay; design: species or system Norovirus VA387 (GII.4)
Method: (§1) Saliva-based NoV-HBGA binding assays were performed as described previously using P dimers of VA387 (GII.4) as NoV surrogates and saliva samples and/or synthetic oligosaccharides as HBGA sources. Briefly, synthetic oligosaccharides and/or boiled saliva samples with defined HBGAs phenotype were coated on 96-well microtiter plates, after blocking with nonfat milk, P dimer of VA387 were added. The bound P dimer was detected using a guinea pig antiserum against NoVs VLPs, followed by the addition of horseradish peroxidase (HRP)-conjugated goat anti-guinea pig IgG. The bound HRP conjugates were colorized by the TMB kit (Kirkegaard & Perry Laboratories), which was read an EIA spectrum reader (Tecan). The synthetic oligosaccharide-PAA conjugates (2 μg/ml, GlycoTech Corporation, Rockville, Md.) were captured to a microtiter plate through coated streptavidin (5 μg/ml).
(§2) Blocking effects of the hit compounds were measured by a pre-incubation of the P dimers with the compounds at given concentrations for 30 min before the P dimers were added to the coated saliva samples or HBGA oligosaccharides in a binding assay. The blocking activity of a compound was defined as its concentration yielding 50% inhibition (IC50) in the binding assay. IC50 calculation was performed using Probit regression analysis and correlation analysis between IC50 and Ki values was performed with nonparametric Spearman's r (two-tailed) by using SPSS statistical software version 13.0 (SPSS, Chicago, Ill.).

[2] = molecular target: VA387 P dimer binding to the synthetic A and B oligosaccharides (Norovirus GII.4 (Human calicivirus NLV/VA98387/1998), UniProt Q913Z3); assay: Synthetic HBGA oligosaccharide-PAA conjugate blocking assay; design: species or system Norovirus VA387 (GII.4)
Sequence of VA387 P dimer binding to the synthetic A and B oligosaccharides (Q913Z3 214-539): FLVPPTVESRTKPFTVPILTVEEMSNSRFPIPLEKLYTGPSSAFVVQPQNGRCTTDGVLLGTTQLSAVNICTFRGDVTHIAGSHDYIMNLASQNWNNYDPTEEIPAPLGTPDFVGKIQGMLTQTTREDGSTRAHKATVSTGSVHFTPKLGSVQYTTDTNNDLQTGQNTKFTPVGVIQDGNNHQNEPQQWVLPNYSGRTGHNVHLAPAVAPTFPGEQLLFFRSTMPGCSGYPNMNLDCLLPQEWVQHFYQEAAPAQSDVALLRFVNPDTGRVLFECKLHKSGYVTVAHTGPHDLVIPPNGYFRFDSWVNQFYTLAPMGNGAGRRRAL
Method: as §1, §2

MTS cytotoxicity assay = format: cell-based, human; rhesus monkey; settings: HeLa and LLC-MK2 cells, 3 days incubation; cell line per value not stated
Method: This assay was performed using CellTiter 96 aqueous nonradioactive cell proliferation kits (Promega, Madison, Wis.) as described elsewhere. Briefly, HeLa and LLC-MK2 cells were seeded at 5×10^4 cells/ml onto a 96-well plate overnight. After an incubation with each compound at various concentrations for 3 days (the compound was added one time at the beginning of the incubation), the culture medium was replaced with fresh one with 100 μl of MTS-phenazine methosulfate/well. After a further incubation at 37° C. for 2 h, the color products of MTS were measured with a plate reader at 490 nm. The cytotoxicities of individual compounds were indicated by the decrease in cellular reduction of MTS into the colored product. The 50% cytotoxic concentrations (CC50) were determined as the concentrations of the compounds that caused 50% inhibition of cell growth compared with that of control cells without a compound.

[3] = Activity (IC50), blocking the binding of NoV P dimer to HBGAs, given as range or bound
[4] = blocking assay, type A saliva as HBGA source, mean ± standard deviation, read-out: IC50 Saliva A
[5] = blocking assay, type B saliva as HBGA source, mean ± standard deviation, read-out: IC50 Saliva B
[6] = IC50 Saliva A, blocking assay, type A saliva as HBGA source, mean ± standard deviation
[7] = IC50 Saliva B, blocking assay, type B saliva as HBGA source, mean ± standard deviation

Sequence of P dimers of VA387 (GII.4) binding to saliva HBGAs (Q913Z3 214-539): as above

Row | Structure (SMILES) | IC50 [1, 3] [µM] | IC50 [1, 4] [µM] | IC50 [1, 5] [µM] | IC50 [2] [µM] | IC50 [1, 6] [µM] | IC50 [1, 7] [µM] | CC50 at 3 days (MTS cytotoxicity assay) [µM]
1 | CC(=O)OCC(=O)C1CCC2C3CC=C4CC(O)CCC4(C)C3CCC12C (stereo not drawn) [Compound 16] | 20 to 40 | 30.9 ± 1.04 | 30.1 ± 1.35 |  |  |  | 
2 | CC1CCc2c(sc3ncn(C(C)C(=O)N/N=C/c4c(O)ccc5ccccc45)c(=O)c23)C1 (stereo not drawn) [Compound 9] |  | 17 ± 1.06 | 16.8 ± 0.87 |  |  |  | 
3 | O=C1CC(c2ccc([N+](=O)[O-])cc2)c2ccc3ccccc3c2N1 (stereo not drawn) [Compound 13] | 20 to 40 | 24.5 ± 0.98 | 26.3 ± 1.24 |  |  |  | 
4 | CC1(C)CC(=O)C2=C(C1)c1c(ccc3ccccc13)NC2 [Compound 8] | 10 to 20 | 14.1 ± 0.53 | 14.9 ± 0.71 |  |  |  | 
5 | C[C@]12CC[C@H](O)C[C@@H]1CC[C@@H]1[C@@H]2CC[C@@]2(C)[C@H]1CC[C@]2(C)O [Compound 3] |  |  | 3.39 ± 0.24 | < 10 |  |  | 
6 | O=C(O)c1ccc(C2Nc3c(F)cccc3C3C=CCC32)cc1 (stereo not drawn) [Compound 20] | 20 to 40 | 38 ± 2.01 | 39.4 ± 1.53 |  |  |  | 
7 | C[C@]12CC[C@H](O)C=C1CC[C@@H]1C2CC[C@@]2(C)C1CC[C@@]21CCC(=O)O1 (stereo partly drawn) [Compound 11] | 20 to 40 |  |  |  | 22.7 ± 1.36 | 23.7 ± 1.28 | 
8 | C[C@]12CC[C@H]3[C@@H](CCC4=C/C(=N/OCC(=O)NCC(=O)O)CC[C@@]43C)[C@@H]1CC[C@H]2O [Compound 10] | 10 to 20 |  |  |  | 18.7 ± 0.35 | 18.6 ± 0.62 | 
9 | C/C(=N/O)C1=CCC2C3CC[C@H]4C/C(=N\O)CC[C@]4(C)C3CC[C@]12C (stereo partly drawn) [Compound 1] |  | 2.38 ± 0.15 | 2.54 ± 0.21 | < 10 |  |  | 
10 | C[C@]12CC[C@H](O)C=C1CC[C@@H]1C2CC[C@@]2(C)C1CC[C@@]21CCC(=O)O1 (stereo partly drawn) [Compound 15] |  |  |  |  | 28.5 ± 1.54 | 29.4 ± 1.24 | 
11 | Cc1noc2c1C1(C)CCC3C(CC=C4CC(O)CCC43C)C1C2 (stereo not drawn) [Compound 18] | 20 to 40 | 33.9 ± 1.67 | 34.5 ± 1.93 |  |  |  | 
12 | CC12CCC3C(CCC4CC(=O)CCC43C)C1CCC2O (stereo not drawn) [Compound 19] | 20 to 40 | 36.9 ± 1.47 | 35.7 ± 1.06 |  |  |  | 
13 | CNc1cc([N+](=O)[O-])cc2c1NC(c1ccccn1)C1CC=CC21 (stereo not drawn) [Compound 12] | 20 to 40 |  |  |  |  |  | 
14 | CC(=O)C1=CCC2[C@@H]3CC=C4C[C@H](O)CC[C@]4(C)C3CC[C@]12C (stereo partly drawn) [Compound 14] | 20 to 40 |  |  |  | 24.8 ± 2.02 | 25.1 ± 1.32 | 
15 | Cc1ccc(C2CC(=O)Nc3c2ccc2ccccc32)cc1[N+](=O)[O-] (stereo not drawn) [Compound 17] | 20 to 40 |  | 33.7 ± 1.27 |  |  |  | 
16 | O=[N+]([O-])c1ccc2c(c1)C1C=CCC1C(C1CC=CCC1)N2 (stereo not drawn) [Compound 7] | 10 to 20 |  | 13.1 ± 0.87 |  |  |  | 
17 | CC(=O)C1CCC2C3CC[C@H]4CC(O)CCC4(C)C3CCC12C (stereo partly drawn) [Compound 2] | 1 to 10 |  |  | < 10 | 2.9 ± 0.33 | 2.93 ± 0.18 | 267
18 | CC(CCC(=O)O)C1CCC2C3CC=C4CC(O)CCC4(C)C3CCC12C (stereo not drawn) [Compound 4] |  |  | 7.65 ± 0.33 | < 10 |  |  | 
19 | C[C@]12CCC3C(CC[C@H]4CC=CC[C@]34C)C1CC/C2=N/NC(N)=S (stereo partly drawn) [Compound 5] |  | 8.7 ± 1.03 | 8.97 ± 0.63 | < 10 |  |  | 
20 | Nc1ccc2c(c1)C1C=CCC1C(c1ccc([N+](=O)[O-])cc1)N2 (stereo not drawn) [Compound 6] | 10 to 20 | 12.6 ± 0.87 | 12.8 ± 0.64 |  |  |  | 
